The values below come from publication PMC8708751, “Hit Identification of a Novel Quinazoline Sulfonamide as a Promising EphB3 Inhibitor: Design, Virtual Combinatorial Library, Synthesis, Biological Evaluation, and Docking Simulation Studies” (Pharmaceuticals, 2021).

One assay has as its target T1, EphB4 (Homo sapiens, UniProt P54760).
T1 construct: purchased Reaction Biology Co. (Kinase HotSpot service)
T1 sequence (P54760 16-987): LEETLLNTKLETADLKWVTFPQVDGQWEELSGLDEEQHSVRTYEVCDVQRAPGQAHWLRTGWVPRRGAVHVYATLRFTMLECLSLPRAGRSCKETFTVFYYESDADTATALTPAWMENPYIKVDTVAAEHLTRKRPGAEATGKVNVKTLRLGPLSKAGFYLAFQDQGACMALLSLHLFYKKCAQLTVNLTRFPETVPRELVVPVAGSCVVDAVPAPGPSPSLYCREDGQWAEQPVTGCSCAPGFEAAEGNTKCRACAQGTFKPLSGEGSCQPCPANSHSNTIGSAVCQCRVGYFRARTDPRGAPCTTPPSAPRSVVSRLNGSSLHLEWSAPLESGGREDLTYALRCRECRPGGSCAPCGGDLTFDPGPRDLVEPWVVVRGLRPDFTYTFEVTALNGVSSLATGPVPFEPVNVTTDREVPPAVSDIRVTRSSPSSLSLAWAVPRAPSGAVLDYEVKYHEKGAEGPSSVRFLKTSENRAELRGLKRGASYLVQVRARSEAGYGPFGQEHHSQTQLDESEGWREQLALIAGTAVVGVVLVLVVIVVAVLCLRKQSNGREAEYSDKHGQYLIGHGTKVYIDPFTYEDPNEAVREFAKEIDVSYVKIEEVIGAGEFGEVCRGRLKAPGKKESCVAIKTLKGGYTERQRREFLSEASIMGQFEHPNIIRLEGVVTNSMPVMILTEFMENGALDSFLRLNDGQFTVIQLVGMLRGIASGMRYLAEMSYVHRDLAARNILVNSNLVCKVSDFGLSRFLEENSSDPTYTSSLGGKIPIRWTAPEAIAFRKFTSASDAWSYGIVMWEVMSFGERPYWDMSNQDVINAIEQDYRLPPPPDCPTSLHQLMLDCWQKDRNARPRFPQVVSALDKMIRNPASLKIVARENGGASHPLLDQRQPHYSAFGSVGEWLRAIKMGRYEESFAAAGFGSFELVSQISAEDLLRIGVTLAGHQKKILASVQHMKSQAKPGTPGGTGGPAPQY
Briefly: Kinase panel assay, EphB4. Format: biochemical. As to the method:
(§1) The HotSpot assay platform contains specific kinase/substrate pairs along with required cofactors. Base reaction buffer: 20 mM Hepes (pH 7.5), 10 mM MgCl2, 1 mM EGTA, 0.02% Brij35, 0.02 mg/mL BSA, 0.1 mM Na3VO4, 2 mM DTT, 1% DMSO. The tested compounds were dissolved in 100% DMSO to specific concentration. The serial dilution was conducted by Integra Viaflo Assist in DMSO (Sigma-Aldrich, Burlington, MA, USA). The reaction mixture containing the examined compound and 33P-ATP was incubated at room temperature for 2 h, and radioactivity was detected by filter-binding method. Kinase activity data were expressed as the percent remaining kinase activity in test samples compared to vehicle (dimethyl sulfoxide) reactions. IC50 values and curve fits were obtained using Prism (GraphPad Software, San Diego, CA, USA).

The target of the next assay is T2, EphB2 (Homo sapiens, UniProt P29323).
T2 construct: purchased Reaction Biology Co. (Kinase HotSpot service)
T2 sequence (P29323 19-1055): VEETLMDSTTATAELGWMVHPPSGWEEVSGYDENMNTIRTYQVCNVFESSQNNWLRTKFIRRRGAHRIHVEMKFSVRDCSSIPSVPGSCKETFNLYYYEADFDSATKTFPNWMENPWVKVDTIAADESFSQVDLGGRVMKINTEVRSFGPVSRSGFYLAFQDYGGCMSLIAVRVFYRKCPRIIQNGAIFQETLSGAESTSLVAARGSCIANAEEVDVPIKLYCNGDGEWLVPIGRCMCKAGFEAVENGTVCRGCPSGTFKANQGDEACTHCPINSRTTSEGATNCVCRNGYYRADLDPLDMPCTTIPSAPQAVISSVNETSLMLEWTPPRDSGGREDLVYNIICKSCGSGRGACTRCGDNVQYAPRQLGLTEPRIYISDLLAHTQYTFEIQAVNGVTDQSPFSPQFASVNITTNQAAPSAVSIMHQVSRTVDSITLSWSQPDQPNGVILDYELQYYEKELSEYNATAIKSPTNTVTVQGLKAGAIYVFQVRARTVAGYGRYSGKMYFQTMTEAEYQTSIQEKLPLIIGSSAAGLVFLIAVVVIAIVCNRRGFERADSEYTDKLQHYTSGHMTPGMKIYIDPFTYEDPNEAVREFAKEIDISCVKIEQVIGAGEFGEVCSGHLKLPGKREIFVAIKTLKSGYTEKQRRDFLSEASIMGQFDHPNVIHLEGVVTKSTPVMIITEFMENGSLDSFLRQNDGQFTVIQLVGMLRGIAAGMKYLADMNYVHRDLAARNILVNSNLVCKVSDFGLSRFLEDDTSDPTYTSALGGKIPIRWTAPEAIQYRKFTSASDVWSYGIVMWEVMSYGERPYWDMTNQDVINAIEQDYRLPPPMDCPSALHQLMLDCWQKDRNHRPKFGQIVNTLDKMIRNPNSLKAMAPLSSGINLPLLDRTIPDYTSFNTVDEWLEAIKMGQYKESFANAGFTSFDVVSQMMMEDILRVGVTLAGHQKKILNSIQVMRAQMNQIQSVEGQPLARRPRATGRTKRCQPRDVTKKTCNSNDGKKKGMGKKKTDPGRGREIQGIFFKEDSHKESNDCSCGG
As to the kind of experiment: Kinase panel assay, EphB2. Format: biochemical. As to the method:
[…]. A further dose-dependent assay was conducted to validate the selectivity of compound 4c over the EphB isoforms. […]. Accordingly, it could be considered as a promising selective inhibitor for EphB3 isoform.
as §1, with “The screening of the tested compounds was performed using the Kinase HotSpot^SM service from Reaction Biology Co. (http://www.reactionbiology.com, accessed on 25 September 2021). The HotSpot” for “The HotSpot”

Each structure is given as a SMILES string.

`NS(=O)(=O)c1ccc(Nc2ncnc3ccc(-c4cccc(O)c4)cc23)cc1` [Compound 4c, 4-((6-(3-Hydroxyphenyl)quinazolin-4-yl)amino)benzenesulfonamide]: the inhibition at 10 µM is 70.2 ± 3.64% on EphB4 (EphB4, 10 µM, read-out: Average % Enzyme Inhibition (Relative to DMSO Controls) at 10 µM) and 76.32 ± 0.61% on EphB2 (EphB2, 10 µM, read-out: Average % Enzyme Inhibition (Relative to DMSO Controls) at 10 µM). In addition, the IC50 against EphB4 (EphB4, dose-dependent assay) was 3.98 µM; against EphB2 (EphB2, dose-dependent assay) it was 3.95 µM.
